Measured values: article PMC9957770, “Mass spectrometry imaging–based assays for aminotransferase activity reveal a broad substrate spectrum for a previously uncharacterized enzyme” (The Journal of Biological Chemistry, 2023)

Biological target: T1, AtTAT1 (Arabidopsis thaliana, UniProt Q9FN30)
T1 construct: gene At5g53970; pET28a construct of Wang et al. (2016), His-tagged, expressed in E. coli Rosetta-2 (DE3), HisTrap purified
T1 sequence (Q9FN30 1-414): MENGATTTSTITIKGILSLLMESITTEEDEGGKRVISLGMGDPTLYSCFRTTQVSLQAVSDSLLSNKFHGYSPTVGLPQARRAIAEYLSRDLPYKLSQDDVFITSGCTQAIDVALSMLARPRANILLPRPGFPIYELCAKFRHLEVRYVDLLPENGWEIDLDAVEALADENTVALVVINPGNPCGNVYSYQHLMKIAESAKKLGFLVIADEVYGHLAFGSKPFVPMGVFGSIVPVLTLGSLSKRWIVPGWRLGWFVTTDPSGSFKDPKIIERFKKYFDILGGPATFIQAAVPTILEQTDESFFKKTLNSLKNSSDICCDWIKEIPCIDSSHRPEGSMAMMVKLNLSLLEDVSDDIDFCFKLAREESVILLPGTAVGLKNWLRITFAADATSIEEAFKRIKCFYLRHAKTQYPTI
Assay: oxime tagging with NIMS mass spectrometry imaging
Type: biochemical
Details: 10 mM amino donor, 6 mM alpha-ketoglutarate, 0.5 mM PLP, 100 mM HEPES, final pH 7.6 to 8.0, 30 °C, 60 min

| Compound | oxime tagging with NIMS mass spectrometry imaging |
| --- | --- |
| N[C@@H](Cc1ccccc1)C(=O)O [phenylalanine] | AtTAT1 can use Tyr, histidine (His), leucine (Leu), methionine (Met), phenylalanine (Phe), and tryptophan (Trp) |
| N[C@@H](Cc1ccc(O)cc1)C(=O)O [tyrosine] | AtTAT1 can use Tyr, histidine (His), leucine (Leu), methionine (Met), phenylalanine (Phe), and tryptophan (Trp) |
